Data published in US20210070748A1, “INHIBITORS OF BRUTONS TYROSINE KINASE” (Pharmacyclics LLC, priority 2015, published 2021).

What was measured:
BTK-WT = molecular target: T1, BTK-WT (Homo sapiens, UniProt Q06187); test: Btk in vitro inhibitory activity (one of Method A TR-FRET, Method B electrophoretic mobility shift, Method C radiometric filter binding); type: biochemical; settings: D-compounds panel data; read-out: IC50 BTK-WT
T1 construct: purified from insect cells as a full-length construct containing an N-terminal 6X-His tag; His6 (N); made in house; host or cells: insect cells (baculovirus Sf21 in Method B)
T1 sequence (Q06187 whole entry): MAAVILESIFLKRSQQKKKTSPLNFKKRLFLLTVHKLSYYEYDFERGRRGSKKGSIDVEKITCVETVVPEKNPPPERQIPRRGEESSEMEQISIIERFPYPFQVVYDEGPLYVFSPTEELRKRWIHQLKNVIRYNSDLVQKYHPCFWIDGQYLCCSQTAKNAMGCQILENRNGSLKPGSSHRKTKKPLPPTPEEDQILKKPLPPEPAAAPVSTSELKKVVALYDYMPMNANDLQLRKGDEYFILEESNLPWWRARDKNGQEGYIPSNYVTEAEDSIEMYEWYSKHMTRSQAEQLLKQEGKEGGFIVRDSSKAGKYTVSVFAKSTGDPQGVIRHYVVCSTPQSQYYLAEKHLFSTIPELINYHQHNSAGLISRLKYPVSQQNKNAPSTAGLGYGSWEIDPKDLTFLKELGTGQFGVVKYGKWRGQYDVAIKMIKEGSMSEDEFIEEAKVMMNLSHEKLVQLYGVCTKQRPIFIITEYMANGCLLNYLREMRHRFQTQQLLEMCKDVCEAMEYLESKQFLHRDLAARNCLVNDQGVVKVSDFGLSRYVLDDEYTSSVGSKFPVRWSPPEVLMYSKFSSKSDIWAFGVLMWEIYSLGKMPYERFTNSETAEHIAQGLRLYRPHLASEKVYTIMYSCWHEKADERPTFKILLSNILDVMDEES

EGFR = EGFR (Homo sapiens, UniProt P00533); test: Inhibition of a panel of kinases, in vitro HotSpot kinase assay: EGFR; type: biochemical; settings: D-compounds panel data; 1 μM ATP
EGFR, sequence (P00533 25-1210): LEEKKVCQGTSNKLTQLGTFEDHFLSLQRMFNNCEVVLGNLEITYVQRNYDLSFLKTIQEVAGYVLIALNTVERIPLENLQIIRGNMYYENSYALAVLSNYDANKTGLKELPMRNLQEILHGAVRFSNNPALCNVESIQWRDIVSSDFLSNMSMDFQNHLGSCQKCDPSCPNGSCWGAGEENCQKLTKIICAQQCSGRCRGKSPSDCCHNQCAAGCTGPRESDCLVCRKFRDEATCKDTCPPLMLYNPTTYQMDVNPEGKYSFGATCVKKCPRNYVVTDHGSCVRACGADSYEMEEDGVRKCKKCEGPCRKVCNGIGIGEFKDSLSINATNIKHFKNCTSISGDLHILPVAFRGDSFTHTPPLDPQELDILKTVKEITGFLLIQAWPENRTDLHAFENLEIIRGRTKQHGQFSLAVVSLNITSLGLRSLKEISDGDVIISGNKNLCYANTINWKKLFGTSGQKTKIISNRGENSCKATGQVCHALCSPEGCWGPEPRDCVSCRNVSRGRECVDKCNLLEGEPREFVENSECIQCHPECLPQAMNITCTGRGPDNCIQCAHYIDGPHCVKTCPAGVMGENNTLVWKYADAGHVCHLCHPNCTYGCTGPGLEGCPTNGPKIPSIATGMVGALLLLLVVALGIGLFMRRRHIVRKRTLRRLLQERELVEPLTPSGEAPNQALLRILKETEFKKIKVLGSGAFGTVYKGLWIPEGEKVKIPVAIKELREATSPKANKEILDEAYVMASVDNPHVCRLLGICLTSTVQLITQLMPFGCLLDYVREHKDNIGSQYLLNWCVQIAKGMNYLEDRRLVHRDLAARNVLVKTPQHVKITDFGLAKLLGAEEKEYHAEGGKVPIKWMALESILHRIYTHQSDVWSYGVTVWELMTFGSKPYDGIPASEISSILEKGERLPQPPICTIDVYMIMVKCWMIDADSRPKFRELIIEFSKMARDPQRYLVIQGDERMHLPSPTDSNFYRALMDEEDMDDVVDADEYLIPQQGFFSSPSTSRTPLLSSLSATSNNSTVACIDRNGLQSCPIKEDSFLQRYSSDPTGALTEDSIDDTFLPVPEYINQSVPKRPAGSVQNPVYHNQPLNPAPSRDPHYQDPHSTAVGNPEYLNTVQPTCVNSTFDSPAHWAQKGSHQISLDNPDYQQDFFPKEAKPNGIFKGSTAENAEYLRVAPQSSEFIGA
Method: The degree of inhibition of a panel of kinases is determined using the in vitro HotSpot kinase assay (purified enzymes, ^33P-ATP, an appropriate substrate and 1 μM ATP).

Row | IC50 (BTK-WT) [nM] | IC50 (EGFR) [nM] | Structure (SMILES)
1 | 10 to 100 | 1000 to 10000 | Cn1cc(Nc2nc(N3CCCC4(C3)CN(c3ccc(C5CC5)cc3)C(=O)O4)cnc2C(N)=O)cn1 [Example D-147, 5-[3-(4-cyclopropylphenyl)-2-oxo-1-oxa-3,7-diazaspiro[4.5]decan-7-yl]-3-[(1-methyl-1H-pyrazol-4-yl)amino]pyrazine-2-carboxamide]
2 | ≤ 10 | 100 to 1000 | C[C@@H]1CC[C@H](NC(=O)c2ccc(C3CC3)cc2)CN1c1cnc(C(N)=O)c(Nc2ccc(N3CCN(C)CC3)cc2)n1 [Example D-153, 5-[(2R,5S)-5-(4-cyclopropylbenzamido)-2-methylpiperidin-1-yl]-3-{[4-(4-methylpiperazin-1-yl)phenyl]amino}pyrazine-2-carboxamide]

Row | Structure (SMILES) | IC50 (BTK-WT) [nM] | IC50 (EGFR) [nM]
3 | C[C@@H]1[C@H](NC(=O)c2ccc(C3CC3)cc2F)CCCN1c1cnc(C(N)=O)c(Nc2ccc(C3(C)CCN(C4CCC4)CC3)cc2)n1 [Example D-134, 3-{[4-(1-cyclobutyl-4-methylpiperidin-4-yl)phenyl]amino}-5-[(2R,3R)-3-(4-cyclopropyl-2-fluorobenzamido)-2-methylpiperidin-1-yl]pyrazine-2-carboxamide] | ≤ 10 | 100 to 1000
